Source: patent US12617762B2, “Carboxy derivatives with antiinflamatory properties” (Sitryx Therapeutics Limited, priority 2019, dated 2026)
Read-outs that look alike come from different tables or passages of the source.

Tests used:
[1] = tested on: IL-1β cytokine output from THP-1s; assay: THP-1 AlphaLISA IL-1β cytokine inhibition assay; type: cell-based; conditions: for IC50: LPS then nigericin; for IL-1β lowering, result in words: THP-1 IL-1β assay
Experimental: Measuring Inhibitory Effects on IL-1β Cytokine Output from THP-1s
The cytokine inhibition profiles of compounds of formula (I) were determined in a differentiated THP-1 cell assay. All assays were performed in RPMI-1640 growth medium (Gibco), supplemented with 10% fetal bovine serum (FBS; Gibco), 1% penicillin-streptomycin and 1% sodium pyruvate unless specified otherwise. The IL-1β cytokine inhibition assay was run in a background of differentiated THP-1 cells as described below. All reagents described were from Sigma-Aldrich unless specified otherwise. Compounds were prepared as 10 mM DMSO stocks.
THP-1 cells were expanded as a suspension up to 80% confluence in appropriate growth medium. Cells were harvested, suspended, and treated with an appropriate concentration of phorbol 12-myristate 13-acetate (PMA) over a 72 hr period (37° C./5% CO2).
Following 72 hrs of THP-1 cell incubation, cellular medium was removed and replaced with fresh growth media containing 1% of FBS. Working concentrations of compounds were prepared separately in 10% FBS treated growth medium and pre-incubated with the cells for 30 minutes (37° C./5% CO2). Following the 30 minute compound pre-incubation, THP-1s were treated with an appropriate concentration of LPS and the cells were subsequently incubated for a 24 hr period (37° C./5% CO2). An appropriate final concentration of Nigericin was then dispensed into the THP-1 plates and incubated for 1 hour (37° C./5% CO2) before THP-1 supernatants were harvested and collected in separate polypropylene 96-well holding plates.
Reagents from an IL-1β and IL-6 commercial kit (Perkin Elmer) were prepared and run according to the manufacturer's instructions. Subsequently, fluorescence signal detection in a microplate reader was measured (EnVision® Multilabel Reader, Perkin Elmer).
Percentage inhibition was calculated per cytokine by normalising the sample data to the high and low controls used within each plate (+/− LPS respectively).

[2] = tested on: NRF2 (nuclear factor erythroid 2-related factor 2); assay: NRF2 +/-GSH activation assay (DiscoverX PathHunter NRF2 translocation kit, U2OS cells); type: cell-based; conditions: for NRF2 activation +GSH Emax / NRF2 activation −GSH Emax: normalised to DMF high control
Experimental: Measuring Compound Activation Effects on the Anti-Inflammatory Transcription Factor NRF2 in DiscoverX PathHunter NRF2 Translocation Kit
Potency and efficacy of compounds of formula (I) against the target of interest to activate NRF2 (nuclear factor erythroid 2-related factor 2) were determined using the PathHunter NRF2 translocation kit (DiscoverX). The NRF2 translocation assay was run using an engineered recombinant cell line, utilising enzyme fragment complementation to determine activation of the Keap1-NRF2 protein complex and subsequent translocation of NRF2 into the nucleus. Enzyme activity was quantified using a chemiluminescent substrate consumed following the formation of a functional enzyme upon PK-tagged NRF2 translocation into the nucleus.
The assay was run under both +/−GSH (glutathione) conditions to determine the sensitivity of the compounds' NRF2-activating abilities to attenuation by GSH.
Additionally, a defined concentration of DMF was used as the ‘High’ control to normalise test compound activation responses to.
U2OS PathHunter eXpress cells were thawed from frozen prior to plating. Following plating, U2OS cells were incubated for 24 hrs (37° C./5% CO2) in commercial kit provided cell medium.
Following 24 hrs of U2OS incubation, cells were directly treated with an appropriate final concentration of compound, for −GSH conditions or, for +GSH conditions, an intermediate plate containing 6× working concentrations of compound stocks was prepared in a 6 mM working concentration of GSH solution (solubilised in sterile PBS). Following a 30 minute compound-GSH pre-incubation (37° C./5% CO2) for +GSH treatment, plated U2OS cells were incubated with an appropriate final concentration of compound and GSH.
Following compound (+/−GSH) treatment, the U2OS plates were incubated for a further 6 hours (37° C./5% CO2) before detection reagent from the PathHunter NRF2 commercial kit was prepared and added to test plates according to the manufacturer's instructions. Subsequently, the luminescence signal detection was measured in a microplate reader (PHERAstar®, BMG Labtech).
Percentage activation was calculated by normalising the sample data to the high and low controls used within each plate (+/−DMF).

[3] = Homo sapiens, THP-1, differentiated THP-1 cells
[4] = +GSH, 30 minute compound-GSH pre-incubation, read-out: NRF2 activation +GSH EC50
[5] = −GSH, U2OS PathHunter cells, 6 hours compound treatment, read-out: NRF2 activation −GSH EC50

Structure (SMILES)	IC50 [1, 3] [µM]	IL-1β lowering, result in words [1]	EC50 [2, 4] [µM]	NRF2 activation +GSH Emax ([2]; +GSH) [%]	EC50 [2, 5] [µM]	NRF2 activation −GSH Emax ([2]; −GSH) [%]	IC50 ([1]; differentiated THP-1 cells) [µM]
C=C(Cc1ncn(CCCCCCCC)n1)C(=O)O [Example 13, 2-((1-octyl-1H-1,2,4-triazol-3-yl)methyl)acrylic acid]	> 100	not effective	48.6	51	43.1	54	
C=C(Cc1nc(C2(c3ccccc3Cl)CC2)no1)C(=O)O [Example 24, 2-((3-(1-(2-chlorophenyl)cyclopropyl)-1,2,4-oxadiazol-5-yl)methyl)acrylic acid]	> 100	not effective	> 100	17	42.4	57	
C=C(Cc1nc(Cc2cccc(CCCC)c2)no1)C(=O)O [Example 29, 2-((3-(3-butylbenzyl)-1,2,4-oxadiazol-5-yl)methyl)acrylic acid]	22.8		11.2	183	7.6	179	
C=C(Cc1nc(CCCc2ccc(Cl)cc2)no1)C(=O)O [Example 33, 2-((3-(3-(4-chlorophenyl)propyl)-1,2,4-oxadiazol-5-yl)methyl)acrylic acid]	83.5		23.3	160	18.3	150	
C=C(Cc1nc(CCCCCCC(F)(F)CF)no1)C(=O)O [Example 47, 2-((3-(7,7,8-trifluorooctyl)-1,2,4-oxadiazol-5-yl)methyl)acrylic acid]	> 100	not effective	47.1	86	41.4	131	
C=C(Cc1nc(C2CCCCC2)no1)C(=O)O [Example 64, 2-((3-cyclohexyl-1,2,4-oxadiazol-5-yl)methyl)acrylic acid]	> 100	not effective	> 100	17	> 100	86	
C=C(Cc1nc(C2CCCCCC2)no1)C(=O)O [Example 65, 2-((3-cycloheptyl-1,2,4-oxadiazol-5-yl)methyl)acrylic acid]	> 100	not effective	> 100	17	> 100	50	
C=C(Cc1nc(C23CC4CC(CC(C4)C2)C3)no1)C(=O)O [Example 66, 2-((3-(adamantan-1-yl)-1,2,4-oxadiazol-5-yl)methyl)acrylic acid]	> 100	not effective	> 100	14	> 100	23	
C=C(Cc1noc(Cc2ccc(CCCC)cc2)n1)C(=O)O [Example 95, 2-((5-(4-butylbenzyl)-1,2,4-oxadiazol-3-yl)methyl)acrylic acid]	> 31.6		3.9	183	2.8	217	
C=C(Cc1noc(-c2ccc(OCCCC)cc2)n1)C(=O)O [Example 96, 2-((5-(4-butoxyphenyl)-1,2,4-oxadiazol-3-yl)methyl)acrylic acid]	> 31.6		12.4	115	11.7	170	
C=C(Cc1nc(CCCC)c(CCCC)o1)C(=O)O [Example 123, 2-((4,5-dibutyloxazol-2-yl)methyl)acrylic acid]	> 100		62.4	42	6.6	111	
C=C(Cc1nc(C(F)(F)c2ccc(F)cc2)no1)C(=O)O [Example 125, 2-((3-(difluoro(4-fluorophenyl)methyl)-1,2,4-oxadiazol-5-yl)methyl)acrylic acid]	> 100		> 100	26	> 100	37	
C=C(Cc1nc(-c2ccc(OCCC)c(Cl)c2)no1)C(=O)O [Example 130, 2-((3-(3-chloro-4-propoxyphenyl)-1,2,4-oxadiazol-5-yl)methyl)acrylic acid]	> 100		37.4	129	36.5	177	
C=C(Cc1nc(-c2ccc(OC3CCC3)cc2)no1)C(=O)O [Example 142, 2-((3-(4-cyclobutoxyphenyl)-1,2,4-oxadiazol-5-yl)methyl)acrylic acid]	> 100		26.9	168	23.3	189	
C=C(Cc1nc(-c2ccc(OC3CCCC3)cc2)no1)C(=O)O [Example 143, 2-((3-(4-cyclopentyloxyphenyl)-1,2,4-oxadiazol-5-yl)methyl)acrylic acid]	22.1		14.5	195	12	243	
C=C(Cc1nc(-c2ccc(O[C@H](C)CC)cc2)no1)C(=O)O [Example 144, (R)-2-((3-(4-(sec-butoxy)phenyl)-1,2,4-oxadiazol-5-yl)methyl)acrylic acid]			31.1	139	28.4	167	> 100
C=C(Cc1nc(C2(c3ccc([S+]([O-])C(F)(F)F)cc3)CC2)no1)C(=O)O (stereo not shown) [Example 157, 2-((3-(1-(4-((trifluoromethyl)sulfinyl)phenyl)cyclopropyl)-1,2,4-oxadiazol-5-yl)methyl)acrylic acid]	> 100		> 100	−5	> 100	41	
